From article PMC5030704 (Scientific Reports, 2016)

Each compound was assayed against T1, TNIK (Homo sapiens, UniProt Q9UKE5) (assay: KINOMEscan competition binding (immobilised reference ligand, qPCR)). Settings: read-out: % Ctrl / 10 μM.
T1 construct: kinase domain, DNA-tagged, KINOMEscan commercial panel
Source text: KINOMEscan competition binding (immobilised reference ligand, qPCR) on TNIK

T1 sequence (Q9UKE5 25-289 limits assumed): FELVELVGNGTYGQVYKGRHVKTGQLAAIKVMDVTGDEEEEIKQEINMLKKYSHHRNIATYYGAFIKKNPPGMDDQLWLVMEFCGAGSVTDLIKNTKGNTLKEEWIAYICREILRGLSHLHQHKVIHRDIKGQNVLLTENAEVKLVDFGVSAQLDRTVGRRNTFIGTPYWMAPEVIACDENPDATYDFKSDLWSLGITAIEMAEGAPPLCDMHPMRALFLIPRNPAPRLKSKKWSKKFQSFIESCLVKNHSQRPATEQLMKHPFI

remaining binding at 10 µM | SMILES
8.2% | COC(=O)Nc1nc2cc(C(=O)c3ccccc3)ccc2[nH]1 [Mebendazole]
33% | CN1CC[C@H](c2c(O)cc(O)c3c(=O)cc(-c4ccccc4Cl)oc23)[C@H](O)C1 [Flavopiridol]
11% | Cc1nc(Nc2ncc(C(=O)Nc3c(C)cccc3Cl)s2)cc(N2CCN(CCO)CC2)n1 [Dasatinib]
